Source: ChEMBL document CHEMBL1201862, “PubChem BioAssay data set” (2004)
Active and inactive are the calls of the source.

Legend:
[1] = NIH-3T3 fibroblast cytotoxicity, dose response, cytotoxicity control, cell-based, fluorescence, Alamar Blue, secondary assay (AID 2327); type: functional;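 also: NIH-3T3 mouse fibroblasts cultured with fluconazole at 8 µg/mL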
[2] = luciferase reporter signal suppression in cells – H4 neuroglioma cells, luminescence, dose response (AID 1990); type: functional, cell-based
BJ [3] = assay: BJ-TERT fibroblast viability loss – cell-based, RAS-independent, luminescence, dose response (AID 1933); type: functional; settings: Homo sapiens
[4] = Luminescence Cell-Based Dose Response HTS to Identify Inhibitors of 5'UTR Stem-Loop Driven Prion Protein mRNA Translation in H4 Neuroglioblastoma Cells. [Related pubchem assays: 1827 (Project Summary), 1813 (Primary HTS)]; type: functional
[5] = alpha-synuclein stem-loop luciferase translation blockers – H4 neuroglioma cells, luminescence, confirmation (AID 1988); type: functional, cell-based
BJ [6] = assay: cells; type: functional, cell-based; settings: Homo sapiens
[7] = fluconazole-exposed Candida albicans growth modulators – fluorescence, retest, confirmation (AID 2467); type: functional, cell-based
[8] = Luminescence-based dose response cell-based high throughput screening assay for cytotoxic compounds using the IEC-6 intestinal epithelial cell line. [Related pubchem assays: 1858 (Summary AID.), 1825 (Counterscreen.), 1907 (Confirmation screen.)]; type: functional
[9] = viability of PTEN-deleted HCT116 cells – cell-based, HCT116 PTEN knockout, dose response (AID 1047); type: functional;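 also: HCT116 colon tumor cells with PTEN knocked out; cells exposed to compound for 60 hours before readout; potency for loss of cell viability measured by luminescence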
[10] = molecular target: T1, Serine/threonine-protein phosphatase (Candida dubliniensis (strain CD36 / CBS 7987 / NCPF 3949 / NRRLY-17841) (Yeast), UniProt B9W6M3); assay: blockers of CaCl2-induced CDRE-lacZ signaling – S. cerevisiae, luminescence, secondary, dose response (AID 2388); type: functional, cell-based;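 also: yeast reporter cells carrying a calcineurin-responsive lacZ construct stimulated with calcium chloride; luminescent beta-galactosidase reporter signal in whole cells rather than isolated phosphatase activity; potency for inhibition where a drop in reporter signal means calcineurin blockade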
T1 sequence (B9W6M3 whole entry): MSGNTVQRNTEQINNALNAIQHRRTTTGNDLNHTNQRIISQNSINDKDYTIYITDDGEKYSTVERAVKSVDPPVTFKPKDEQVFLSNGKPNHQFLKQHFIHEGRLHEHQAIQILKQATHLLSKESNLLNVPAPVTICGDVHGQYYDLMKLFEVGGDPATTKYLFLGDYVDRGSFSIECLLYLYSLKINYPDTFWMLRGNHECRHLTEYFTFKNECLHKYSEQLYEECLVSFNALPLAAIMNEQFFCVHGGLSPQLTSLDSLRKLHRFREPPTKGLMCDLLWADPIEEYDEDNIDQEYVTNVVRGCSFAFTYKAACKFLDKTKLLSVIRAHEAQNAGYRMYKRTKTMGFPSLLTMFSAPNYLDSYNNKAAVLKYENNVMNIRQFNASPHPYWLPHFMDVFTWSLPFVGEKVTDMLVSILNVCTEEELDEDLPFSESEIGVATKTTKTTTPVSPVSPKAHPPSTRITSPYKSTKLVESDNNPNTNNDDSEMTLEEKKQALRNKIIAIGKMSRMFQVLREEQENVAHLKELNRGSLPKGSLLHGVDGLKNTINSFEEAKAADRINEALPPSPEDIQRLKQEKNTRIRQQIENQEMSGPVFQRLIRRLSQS

[11] = viability of HCT116 lacking mutant beta-catenin – cell-based, human colon tumor, dose response (AID 1045); type: functional;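 also: HCT116 colon tumor cells with beta catenin knocked out; cells exposed to compound for 60 hours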
BJ [12] = assay: BJ-TERT-LT-ST fibroblast viability loss – cell-based, RAS-independent, luminescence, dose response (AID 1935); type: functional; settings: Homo sapiens;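 also: BJ fibroblasts immortalized with TERT plus LT and ST oncogenes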
[13] = DRD fibroblast viability loss – cell-based, non-viral oncogenic, luminescence, dose response (AID 1934); type: functional; settings: Homo sapiens
BJ [14] = assay: growth inhibition of engineered Ras-driven BJ cells – cell-based, alamar blue fluorescence, cherrypicked samples, dose response (AID 2631); type: functional; settings: Homo sapiens;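 also: confirmatory dose-response assay in RAS-dependent BJ fibroblasts engineered with TERT, LT and ST, with cytotoxicity read by fluorescence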
[15] = molecular target: ATP-dependent molecular chaperone HSP82 (Candida albicans (strain WO-1) (Yeast), UniProt C4YTQ8); assay: steroid-induced GRE reporter decrease in yeast – S. cerevisiae, luminescence, Hsp90 inhibitor project, dose response (AID 2400); type: functional, cell-based;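 also: beta-galactosidase luminescence from glucocorticoid response element reporter as proxy for Hsp90 function; inhibitor potency where signal loss means Hsp90 inhibition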
ATP-dependent molecular chaperone HSP82, sequence (C4YTQ8 whole entry): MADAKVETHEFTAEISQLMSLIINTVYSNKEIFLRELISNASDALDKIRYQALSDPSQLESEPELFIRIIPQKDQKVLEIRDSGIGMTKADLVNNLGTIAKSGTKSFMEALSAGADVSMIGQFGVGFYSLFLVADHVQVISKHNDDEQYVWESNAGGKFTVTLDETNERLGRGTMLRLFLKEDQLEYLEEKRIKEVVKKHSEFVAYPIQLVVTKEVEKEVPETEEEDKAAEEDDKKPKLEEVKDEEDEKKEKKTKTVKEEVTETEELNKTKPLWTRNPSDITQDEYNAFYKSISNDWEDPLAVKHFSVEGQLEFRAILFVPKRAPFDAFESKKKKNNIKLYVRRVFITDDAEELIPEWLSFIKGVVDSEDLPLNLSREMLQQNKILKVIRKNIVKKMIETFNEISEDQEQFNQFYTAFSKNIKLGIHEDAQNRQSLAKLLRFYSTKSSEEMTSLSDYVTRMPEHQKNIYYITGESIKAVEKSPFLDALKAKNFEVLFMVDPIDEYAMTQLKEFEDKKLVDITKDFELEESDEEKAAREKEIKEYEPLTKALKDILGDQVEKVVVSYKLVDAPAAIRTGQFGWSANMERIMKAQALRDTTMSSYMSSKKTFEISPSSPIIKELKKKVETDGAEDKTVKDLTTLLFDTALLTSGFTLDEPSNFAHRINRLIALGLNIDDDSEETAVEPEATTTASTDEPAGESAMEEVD

Melanocortin receptor 4 = Melanocortin receptor 4 (Homo sapiens, UniProt P32245); assay: inhibitors of MC4R cAMP signaling – cell-based, TR-FRET, biased antagonists, dose response (AID 602298); type: functional;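 also: antagonist potency against agonist-stimulated cAMP production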
Melanocortin receptor 4, sequence (P32245 whole entry): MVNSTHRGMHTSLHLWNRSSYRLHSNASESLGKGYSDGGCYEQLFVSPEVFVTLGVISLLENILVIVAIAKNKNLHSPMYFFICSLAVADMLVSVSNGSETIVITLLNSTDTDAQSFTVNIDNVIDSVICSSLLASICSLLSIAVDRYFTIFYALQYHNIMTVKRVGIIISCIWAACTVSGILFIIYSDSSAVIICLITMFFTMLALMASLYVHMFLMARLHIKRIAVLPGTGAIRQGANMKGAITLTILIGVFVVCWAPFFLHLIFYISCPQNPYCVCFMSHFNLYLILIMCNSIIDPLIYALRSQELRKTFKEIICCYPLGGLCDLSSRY

[16] = cAMP pathway inhibition in counterscreen cell line – TR-FRET cAMP detection, counter-screen for MC4R biased antagonist project, dose response (AID 602305); type: functional, cell-based;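 also: U2OS cells stimulated with forskolin near its EC80 as the cAMP inducer; potency is for inhibition of forskolin-stimulated cAMP signaling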
Paired box protein Pax-8 = Paired box protein Pax-8 (Homo sapiens, UniProt Q06710); assay: PAX8 transcriptional activity inhibition in RMG-I – RMG-I cells, luciferase, cherry-pick, dose response (AID 687027); type: functional, cell-based;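 also: luciferase reporter driven by Pax8 target thyroperoxidase promoter measured by SteadyGlo luminescence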
Paired box protein Pax-8, sequence (Q06710 whole entry): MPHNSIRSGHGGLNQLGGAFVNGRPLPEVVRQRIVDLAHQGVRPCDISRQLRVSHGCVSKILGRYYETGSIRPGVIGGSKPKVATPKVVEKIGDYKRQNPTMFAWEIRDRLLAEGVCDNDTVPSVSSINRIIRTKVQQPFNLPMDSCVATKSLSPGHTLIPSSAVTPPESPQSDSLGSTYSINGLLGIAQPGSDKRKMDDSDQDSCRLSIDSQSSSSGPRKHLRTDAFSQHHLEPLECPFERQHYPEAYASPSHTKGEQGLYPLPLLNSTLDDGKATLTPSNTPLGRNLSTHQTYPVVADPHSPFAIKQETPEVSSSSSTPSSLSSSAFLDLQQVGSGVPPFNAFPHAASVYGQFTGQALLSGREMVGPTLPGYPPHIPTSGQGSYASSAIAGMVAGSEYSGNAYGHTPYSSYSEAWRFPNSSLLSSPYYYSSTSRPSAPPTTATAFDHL

Galanin receptor type 2 = Galanin receptor type 2 (Homo sapiens, UniProt O43603); assay: Dose Response cell-based high-throughput screening assay to identify antagonists of galanin receptor 2 (GALR2). [Related pubchem assays: 828, 866 ]; type: functional
Galanin receptor type 2, sequence (O43603 whole entry): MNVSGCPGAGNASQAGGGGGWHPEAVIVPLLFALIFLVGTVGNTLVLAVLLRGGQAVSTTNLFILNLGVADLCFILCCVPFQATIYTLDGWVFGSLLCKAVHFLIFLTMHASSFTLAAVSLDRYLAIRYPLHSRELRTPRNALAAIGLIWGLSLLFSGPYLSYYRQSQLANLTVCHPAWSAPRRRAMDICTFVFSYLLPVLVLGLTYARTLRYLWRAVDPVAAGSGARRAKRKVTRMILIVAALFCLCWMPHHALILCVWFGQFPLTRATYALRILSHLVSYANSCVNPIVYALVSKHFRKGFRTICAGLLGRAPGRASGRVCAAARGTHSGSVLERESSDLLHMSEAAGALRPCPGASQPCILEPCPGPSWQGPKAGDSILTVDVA

[17] = molecular target: T2, Aryl hydrocarbon receptor (Homo sapiens, UniProt P35869); assay: Luminescence-based cell-based high throughput dose response assay for activators of the Aryl Hydrocarbon Receptor (AHR). [Related pubchem assays: 2796 (Primary screen (AHR activators in singlicate)), 2845 (Confirmation screen (AHR activators in triplicate)), 434939 (Counterscreen (PXR activators in triplicate)), 2804 (Summary (AHR activators))]; type: ADME
T2 sequence (P35869 whole entry): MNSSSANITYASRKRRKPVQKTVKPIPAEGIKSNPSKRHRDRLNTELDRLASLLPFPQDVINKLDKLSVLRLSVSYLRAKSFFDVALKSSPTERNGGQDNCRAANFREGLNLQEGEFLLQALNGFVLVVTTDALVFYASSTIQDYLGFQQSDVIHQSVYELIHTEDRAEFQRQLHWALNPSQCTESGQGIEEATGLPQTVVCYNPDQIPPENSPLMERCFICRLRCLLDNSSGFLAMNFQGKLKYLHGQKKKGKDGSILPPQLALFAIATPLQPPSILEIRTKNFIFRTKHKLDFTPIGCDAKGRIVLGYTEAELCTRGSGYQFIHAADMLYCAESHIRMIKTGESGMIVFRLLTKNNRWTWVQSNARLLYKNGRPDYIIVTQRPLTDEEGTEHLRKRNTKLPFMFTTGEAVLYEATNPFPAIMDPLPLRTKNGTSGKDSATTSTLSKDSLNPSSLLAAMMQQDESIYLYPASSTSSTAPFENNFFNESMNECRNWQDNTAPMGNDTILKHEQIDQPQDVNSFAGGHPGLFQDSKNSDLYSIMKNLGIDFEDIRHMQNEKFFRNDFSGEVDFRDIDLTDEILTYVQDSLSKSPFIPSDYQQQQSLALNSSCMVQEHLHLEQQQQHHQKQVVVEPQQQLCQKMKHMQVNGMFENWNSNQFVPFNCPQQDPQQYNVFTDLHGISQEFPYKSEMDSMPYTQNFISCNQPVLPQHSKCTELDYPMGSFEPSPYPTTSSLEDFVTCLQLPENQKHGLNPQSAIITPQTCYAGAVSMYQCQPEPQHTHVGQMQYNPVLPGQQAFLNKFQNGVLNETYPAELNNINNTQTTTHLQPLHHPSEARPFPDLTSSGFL

Leucine aminopeptidase = molecular target: T3, Leucine aminopeptidase (Plasmodium falciparum 3D7, UniProt Q8IL11); assay: P. falciparum M17LAP inhibitors, primary screen, biochemical, fluorogenic H-Leu-NHMec substrate, 1536-well (AID 1619); type: functional
T3 sequence (Q8IL11 whole entry): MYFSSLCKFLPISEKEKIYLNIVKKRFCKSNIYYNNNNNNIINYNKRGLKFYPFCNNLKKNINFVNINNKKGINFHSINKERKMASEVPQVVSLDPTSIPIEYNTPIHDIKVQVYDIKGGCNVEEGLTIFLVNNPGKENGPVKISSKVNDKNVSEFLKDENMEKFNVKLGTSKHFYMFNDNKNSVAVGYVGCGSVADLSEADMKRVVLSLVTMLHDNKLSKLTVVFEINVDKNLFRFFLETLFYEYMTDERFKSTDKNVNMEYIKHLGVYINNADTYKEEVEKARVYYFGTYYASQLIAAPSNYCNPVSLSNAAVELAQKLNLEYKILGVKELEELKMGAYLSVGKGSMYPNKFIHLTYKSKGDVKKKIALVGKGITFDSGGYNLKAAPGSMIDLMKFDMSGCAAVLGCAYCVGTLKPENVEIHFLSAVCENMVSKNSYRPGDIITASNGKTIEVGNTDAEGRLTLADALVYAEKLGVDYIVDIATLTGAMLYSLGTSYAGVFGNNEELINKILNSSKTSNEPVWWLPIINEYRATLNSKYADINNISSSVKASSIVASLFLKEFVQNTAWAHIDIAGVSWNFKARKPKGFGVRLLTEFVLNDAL

Aspartyl aminopeptidase = molecular target: T4, Aspartyl aminopeptidase (Plasmodium falciparum 3D7, UniProt Q8I2J3); assay: Counterscreen for inhibitors of M1 and M17 aminopeptidases: QFRET-based biochemical high throughput dose response assay for inhibitors of the Plasmodium falciparum M18 Aspartyl Aminopeptidase (PFM18AAP). [Related PubChem assays: 1619 (Screening assay (M17LAP inhibitors).), 1445 (Screening assay (M1AAP inhibitors).)]
T4 sequence (Q8I2J3 whole entry): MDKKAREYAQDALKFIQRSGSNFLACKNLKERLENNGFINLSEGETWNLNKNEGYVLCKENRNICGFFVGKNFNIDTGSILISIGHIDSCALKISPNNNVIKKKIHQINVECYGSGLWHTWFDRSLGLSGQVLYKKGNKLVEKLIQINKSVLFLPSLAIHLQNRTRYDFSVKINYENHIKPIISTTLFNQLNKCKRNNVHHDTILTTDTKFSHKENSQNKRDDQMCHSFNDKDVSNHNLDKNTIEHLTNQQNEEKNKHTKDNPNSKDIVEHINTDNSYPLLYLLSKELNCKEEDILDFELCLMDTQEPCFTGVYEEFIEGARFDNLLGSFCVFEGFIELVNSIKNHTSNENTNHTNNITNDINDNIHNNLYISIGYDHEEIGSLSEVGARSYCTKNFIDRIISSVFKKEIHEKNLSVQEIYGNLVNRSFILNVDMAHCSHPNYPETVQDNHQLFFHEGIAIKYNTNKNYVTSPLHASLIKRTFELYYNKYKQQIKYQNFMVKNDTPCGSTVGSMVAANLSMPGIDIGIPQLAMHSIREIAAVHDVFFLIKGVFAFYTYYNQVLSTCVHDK

Procathepsin L = Procathepsin L (Homo sapiens, UniProt P07711); assay: CTSL1 protease inhibition – biochemical, QFRET, 1536-well, counter-screen for M1/M17 aminopeptidase inhibitor project, dose response (AID 2214)
Procathepsin L, sequence (P07711 whole entry): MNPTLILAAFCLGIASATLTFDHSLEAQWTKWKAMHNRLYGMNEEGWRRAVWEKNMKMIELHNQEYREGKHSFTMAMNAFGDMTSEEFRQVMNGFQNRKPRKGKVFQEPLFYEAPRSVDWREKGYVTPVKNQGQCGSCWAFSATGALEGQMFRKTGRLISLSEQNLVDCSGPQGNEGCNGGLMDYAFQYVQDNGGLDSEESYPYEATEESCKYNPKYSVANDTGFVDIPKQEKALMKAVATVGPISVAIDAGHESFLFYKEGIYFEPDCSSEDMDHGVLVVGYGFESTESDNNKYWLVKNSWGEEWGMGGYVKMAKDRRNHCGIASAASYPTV

Estrogen receptor = molecular target: T5, Estrogen receptor (Homo sapiens, UniProt P03372);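 also: potency for inhibiting coactivator peptide recruitment to the receptor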
T5 sequence (P03372 whole entry): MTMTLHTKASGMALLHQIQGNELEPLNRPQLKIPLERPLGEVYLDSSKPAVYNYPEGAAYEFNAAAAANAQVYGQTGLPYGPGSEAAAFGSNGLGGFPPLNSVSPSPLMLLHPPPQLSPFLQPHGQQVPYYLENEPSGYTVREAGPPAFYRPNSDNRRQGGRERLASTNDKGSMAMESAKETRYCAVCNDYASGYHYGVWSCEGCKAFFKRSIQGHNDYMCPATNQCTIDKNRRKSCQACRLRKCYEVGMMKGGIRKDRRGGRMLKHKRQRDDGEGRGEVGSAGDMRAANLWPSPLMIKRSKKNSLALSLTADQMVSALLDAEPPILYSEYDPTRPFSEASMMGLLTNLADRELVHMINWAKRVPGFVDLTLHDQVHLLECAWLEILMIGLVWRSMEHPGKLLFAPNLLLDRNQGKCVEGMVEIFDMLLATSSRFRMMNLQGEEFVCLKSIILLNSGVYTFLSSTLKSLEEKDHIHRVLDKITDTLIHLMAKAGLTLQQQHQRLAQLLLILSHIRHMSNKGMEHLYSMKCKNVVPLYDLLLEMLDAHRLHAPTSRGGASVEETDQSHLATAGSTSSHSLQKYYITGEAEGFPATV

Estrogen receptor beta [18] = molecular target: T6, Estrogen receptor beta (Homo sapiens, UniProt Q92731);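 also: recombinant ER-beta bound to coactivator SRC1 peptide in presence of estradiol agonist; inhibitors block coactivator peptide binding and lower the FRET signal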
T6 sequence (Q92731 whole entry): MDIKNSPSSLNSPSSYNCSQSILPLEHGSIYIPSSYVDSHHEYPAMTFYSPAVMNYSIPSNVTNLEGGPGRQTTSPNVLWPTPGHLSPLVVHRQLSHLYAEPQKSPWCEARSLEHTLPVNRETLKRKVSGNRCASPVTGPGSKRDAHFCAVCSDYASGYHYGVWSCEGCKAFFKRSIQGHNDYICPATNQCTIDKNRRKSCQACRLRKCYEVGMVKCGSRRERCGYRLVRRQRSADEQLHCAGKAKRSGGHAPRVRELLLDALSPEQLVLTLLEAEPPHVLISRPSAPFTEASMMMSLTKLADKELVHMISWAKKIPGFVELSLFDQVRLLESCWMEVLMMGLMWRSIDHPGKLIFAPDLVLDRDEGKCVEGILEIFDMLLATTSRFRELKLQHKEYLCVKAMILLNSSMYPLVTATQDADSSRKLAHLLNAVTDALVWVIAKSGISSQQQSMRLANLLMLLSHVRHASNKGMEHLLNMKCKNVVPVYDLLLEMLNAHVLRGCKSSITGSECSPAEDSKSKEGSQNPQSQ

Estrogen receptor beta [19] = molecular target: T6, Estrogen receptor beta; assay: blockers of SRC-3 recruitment to ERβ – biochemical, ELISA, streptavidin-HRP readout, orthogonal assay, confirmation (AID 1060)

In the case of `O=C(NC(Nc1nc2ccc([N+](=O)[O-])cc2s1)(C(F)(F)F)C(F)(F)F)c1ccccc1Cl`, the EC50 [1] is reported as 12.3 µM (active), the EC50 [2] is reported as 0.266 µM (active) and the EC50 (BJ [3]) is reported as 1.35 µM (active). For the same compound, the EC50 [4] was 6.53 µM (active), the EC50 [5] was 0.242 µM (active) and the EC50 (BJ [6]) was 1.41 µM (active). For the same compound, the EC50 [7] was 0.758 µM (active), the IC50 [8] was 1.64 µM (active) and the EC50 [9] was 0.234 µM (active). The EC50 [10] was > 180 µM (inactive), the EC50 [11] was 0.242 µM (active) and the EC50 (BJ [12]) was 5.65 µM (inconclusive). The EC50 [13] was 1.81 µM (active), the EC50 (BJ [14]) was 1.11 µM (active) and the EC50 [15] was 22.6 µM (active). The IC50 (Melanocortin receptor 4) was > 64.6 µM (inactive), the IC50 [16] was > 64.6 µM (inactive) and the AC50 (Paired box protein Pax-8) was 0.676 µM (active).
In the case of `CCOC(=O)c1ccc(N2C(=O)CC(N3CCC(O)(c4ccc(Br)cc4)CC3)C2=O)cc1` (stereo unspecified), the IC50 (Galanin receptor type 2) is reported as > 42 µM (not active).
In the case of `CC(=O)c1noc(C)c1C(=O)Nc1nccs1`, the EC50 [17] is reported as 6.46 µM (active).
In the case of `N#Cc1c(NC(=O)C2C3C=CC(C3)C2C(=O)O)sc2c1CCCCC2` (stereo unspecified), the IC50 (Leucine aminopeptidase) is reported as 1.39 µM (active), the IC50 (Aspartyl aminopeptidase) is reported as > 73.5 µM (not active) and the IC50 (Procathepsin L) is reported as > 59.6 µM (not active).
With `O=Cc1ccc2oc3nc4n(c(=O)c3c(=O)c2c1)CCCS4` the IC50 (Estrogen receptor) was 17.8 µM (active), the IC50 (Estrogen receptor beta [18]) was > 50 µM (not active) and the IC50 (Estrogen receptor beta [19]) was > 50 µM (not active).
